Assay results taken from patent US6448224B1, “Antibiotics and methods of using the same” (priority 1998, dated 2002).
“Also recorded” adds a separate entry of the source.

Legend:
pneumococcal strain R6 [1] = experiment: Cell growth curves (OD 620 nm) of R6 cultures with or without test reagents; format: cell-based, Streptococcus pneumoniae; settings: for ability to inhibit R6 growth (FIG. 5): 100 μM peptide added to growing R6 at OD 620 nm of 0.1
Procedure: (§1) Cell growth curves were performed in the presence or absence of the test reagents as specified. In short, samples were prepared as follows: 1 ml of a pneumococcus culture was placed into 10 ml of prewarmed Semisynthetic (C+Y) medium. The optical density (OD) of the bacteria was monitored at 620 nm until an OD of approximately 0.1 was reached. At this point the test reagents were administered to the samples. The cells were cultured for up to 11 hours at 37° Celsius, and the OD at 620 nm was monitored every hour. A decrease in OD 620 is indicative of cell lysis, an increase is indicative of bacterial growth. No change in optical density indicates growth inhibition.
(§2) The peptide having amino acid sequence SEQ ID NO:2 was chemically synthesized and tested for growth inhibiting, killing and lytic activity in Streptococcus pneumoniae cultures. To characterize the antibacterial activity of the peptide, pneumococcal strain R6 which is sensitive to penicillin was exposed to 0.1 mM of the peptide having the amino acid sequence of SEQ ID NO:2 at an optical density of 0.01 (bacterial density of 3×10^6 cfu/ml). Bacterial growth as measured by optical density was followed for 11 hours and viability was assessed by plating on blood agar. […] Four hours after the start of the experiment, the control strain grew from 3×10^6 to 1.2×10^7 cfu/ml. In contrast, four hours after addition of the peptide, the viable bacterial number decreased from 3×10^6 to 3×10^4 CFU/ml (10^3-fold lower than the control).
The fact that the peptide is active in the range below 1 μg/ml places the potency of its antibacterial effect in the same range as conventional antibiotics.
R6 with no peptide was the control and underwent exponential growth.

[2] = tested on: RR insertion duplication mutant of R6x; experiment: Phenotypes of the mutants: lysis, RR mutant; format: cell-based, S. pneumoniae
Procedure: (§3) Bacterial strains and growth conditions: The parental strain of S. pneumoniae used in these studies was R6x [Tiraby et al., Proc. Natl. Acad. Sci. USA., 70:3541-3545 (1973)], a derivative of the unencapsulated Rockefeller strain R36A [Avery et al., J. Ex. Med., 79:137-158 (1944)]. Pneumococci were routinely grown on tryptic soy agar (TSA, Difco) supplemented with sheep blood to a final concentration of 3% (v/v). For growth in liquid culture, the bacteria were grown in a semi-synthetic casein hydrolysate medium supplemented with yeast extract (C+Y, [Lacks et al., Biochem. Biophys. Acta., 39:508-517 (1960)]). For the selection and maintenance of pneumococci containing chromosomally integrated plasmids, bacteria were grown in the presence of 1 μg/ml erythomycin and/or 250 μg/ml kanamycin.
(§4) Construction of mutations: Insertion duplication mutagenesis was carried out using PCR to generate gene fragments for homologous recombination proximal to the amino terminus of Orf W1, HK or RR as follows:
RR: 371 bp gene fragment spanning residues 142 (EcoR1 site) to 513 (BamH1 site) of SEQ ID NO:15.
(§5) Phenotypes of the mutants: The mutants were assessed for various physiological functions characteristic of pneumococci. This included lysis by penicillin, vancomycin, and the detergent deoxycholate (DOC). Other capabilities tested included ability to undergo natural DNA transformation (Transform) and expression of the LytA protein as assessed by Western blot. All mutants grew at the normal 30-40 minute doubling time and formed the classical diplococcal morphology.

HK mutant strain Van S = experiment: Lysis of HK mutant VanS cells; format: cell-based, pneumococcus; settings: 10×MIC penicillin and/or 0.5 mM peptide
Procedure: (§6) FIGS. 11A-11B show the effects of 10×MIC of penicillin and/or 0.5 mM of the peptide having the amino acid sequence of SEQ ID NO:2 on the lysis of clinical isolate F79 cells (FIG. 11A) and HK mutant VanS cells (FIG. 11B).
(§7) F79 is a natural isolate of pneumococcus with mutations in the HK and the ABC transporter genes as determined by SSCP (see Example 11). This strain is tolerant to penicillin and vancomycin.

[3] = tested on: pneumococcus R6, non-growing; experiment: Lysis of R6 cells under starvation conditions (medium lacking lysine); format: cell-based; settings: 10×MIC penicillin and/or 0.5 mM peptide
Text: When bacteria grow slowly or stop growing due to nutrient deprivation, they become tolerant to antibiotics of all classes. […] This prolongs the course of antibiotics needed to treat these infections. For instance, many weeks of therapy are required to treat endocarditis and osteomyelitis secondary to slowly growing bacteria. An in vitro example of phenotypic tolerance is shown in FIG. 10 where pneumococcus R6 has been transferred at time 0 to a medium lacking the essential amino acid lysine. Penicillin was added 5 min after the transfer. […] This same response is seen with the peptide.

clinical isolate A144 [4] = experiment: Cell viability (CFU/ml) of clinical isolate A144 one hour after addition; format: cell-based, pneumococcus; settings: 10×MIC penicillin, 10×MIC vancomycin or 0.4 mM peptide
Text: (§8) Tolerance to penicillin occurs in bacteria that fail to trigger autolysins in response to the drug. […] This is a mechanism of resistance to these drugs and is a serious emerging medical problem. […] However, one pneumococcal strain that fails to lyse and dies slowly in response to both penicillin and vancomycin is the clinical isolate A144. This combination of traits makes A144 recalcitrant to therapy. FIG. 8 compares the activity of penicillin, vancomycin, and the peptide against a classical sensitive strain, R6, and the tolerant strain A144. […] In contrast, strain A144 loses only 0.5 logs of viability in the same time period for all three therapies. […] Thereafter the bacteria grew more slowly than untreated controls.

[5] = tested on: loss of function mutants of the ABC transporter and RR/HK; experiment: Tolerance of loss of function mutants in ABC transporter and RR/HK to antibiotics; format: cell-based, S. pneumoniae; settings: all 3 mutants; growth inhibitory concentrations
Text: As described in Example 6, using insertion duplication mutagenesis, loss of function mutations were obtained in each of the 3 open reading frames of the ABC transporter and each of the two parts of the RR/HK. […] These parallel phenotypes further implicate these topographically close genes in a common pathway.
Vancomycin is the only antibiotic that maintains efficacy against many strains of highly antibiotic resistant bacteria, such as staphylococci, enterococci and pneumococci. Escape from antibiotic activity of vancomycin has been detected in rare staphylococci and enterococci but not in pneumococci as yet. […] Infect. Dis. J., 12:196-200 (1993); Marton et al., J. Infect. Dis., 163:542-8 (1991); and Bradley et al., Pediatr. Infect. Dis., 14:1037-1041(1995)]. […] If they created a phenotype which was corrected by exogenous peptide, they may participate in the biological activity of the peptide. For instance, the ABC transporter may transport the peptide and the HK may serve as an extracellular receptor for the peptide which then changes the behavior of the bacteria (i.e. killing) via a RR signal.

[6] = tested on: Orf W1 insertion duplication mutant of R6x; experiment: Phenotypes of the mutants: lysis, Orf W1 mutant; format: cell-based, S. pneumoniae
Procedure: as §3, §4
OrfW1: 435 bp gene fragment spanning residues 473 (EcoR1 site) to 908 (BamH1 site) of SEQ ID NO:21.
as §5

[7] = tested on: clinical isolate F79 (mutations in HK and ABC transporter genes); experiment: Lysis of clinical isolate F79 cells; format: cell-based, pneumococcus; settings: 10×MIC penicillin and/or 0.5 mM peptide
Procedure: as §6, §7

[8] = tested on: HK insertion duplication mutant of R6x; experiment: Phenotypes of the mutants: lysis, HK mutant; format: cell-based, S. pneumoniae
Procedure: as §3, §4
HK: 411 bp gene fragment spanning residues 279 (EcoR1 site) to 690 (BamH1 site) of SEQ ID NO:13.
as §5

pneumococcal strain R6 [9] = experiment: Cell viability (CFU/ml) of R6, plating on blood agar; format: cell-based, Streptococcus pneumoniae; settings: 0.1 mM peptide
Procedure: as §2, §8

mutant in ORF WI = experiment: Antibacterial activity of the peptide in mutants: growth inhibition, ORF W1 mutant; format: cell-based, S. pneumoniae; settings: peptide added from the outside
Text: (§9) To test this hypothesis the ability of the peptide having the amino acid sequence of SEQ ID NO:2 to maintain antibacterial activity in the mutants was examined. […] Furthermore, bacteria which are tolerant by virtue of phenotypic tolerance due to slow growth rate or mutations in genes other than the RR/HK will be susceptible to the antibacterial effect of the peptide.

clinical isolate A144 [10] = experiment: Growth of clinical isolate A144; format: cell-based, pneumococcus; settings: 0.1 mM peptide added early in the growth cycle; for 4 hours
Text: as §8

[11] = tested on: Lyt-4-4 strain of Streptococcus pneumoniae (loss of LytA activity); experiment: Growth curve (OD 620 nm) of autolysin deficient strain Lyt 4-4; format: cell-based; settings: 0.1 mM peptide; absence of autolytic activity
Procedure: The addition of the additives were made at time “0” hours. The strain of bacteria cultured was the Lyt-4-4 strain of Streptococcus pneumoniae which harbors a mutation leading to the loss of LytA activity. The peptide having the amino acid sequence of SEQ ID NO:2 was added as indicated at a concentration of 0.1 mM. Lyt-4-4 lacks active autolysin LytA and is therefore tolerant to penicillin treatment.
as §1
This antibacterial effect was also demonstrable in bacteria mutated so as to prevent autolysis by point mutation in the autolysin, as in the autolysin deficient strain Lyt 4-4.

Lyt 4-4 = experiment: Chain morphology of Lyt 4-4; format: cell-based, Streptococcus pneumoniae; settings: 0.5 mM peptide in the medium
Text: Loss of chain formation is a measure of antibacterial activity independent of autolysin.
Strains of pneumococcus that are tolerant to penicillin, such as Lyt 4-4, grow in long chains as compared to the diplococcal morphology of wild type pneumococci. FIG. 6A illustrates these chains, which extend to 30-50 bacteria in length.

RR/HK mutants = experiment: Antibacterial activity of the peptide in mutants: growth inhibition, RR/HK mutants; format: cell-based, S. pneumoniae; settings: peptide added exogenously
Text: as §9

Compound: MRKEFHNVLSSGQL (listed as Streptococcus pneumoniae) [Peptide 4]
- ability to inhibit R6 growth (FIG. 5) (pneumococcal strain R6 [1]): Exponential growth equal to untreated bacteria

Compound: MRKEFHNVLSAGQLLADKRPARDYN [Peptide 3]
- ability to inhibit R6 growth (FIG. 5) (pneumococcal strain R6 [1]): greatly enhanced antibacterial effect

Compound: MEFMRKEFHNVLSSGQLLADKRPARDYN (listed as Streptococcus pneumoniae) [SEQ ID NO:12]
- antibacterial activity against R6 (pneumococcal strain R6 [1]): no antibacterial activity

Compound: MRKEFHNVLSSGQLLADKRPARDAN [Peptide 2]
- ability to inhibit R6 growth (FIG. 5) (pneumococcal strain R6 [1]): greatly decreased anti-bacterial activity

Compound: penicillin
- Lysis by [2]: sensitive
- lysis / tolerance of strain Van S (HK mutant strain Van S): tolerance
- lysis response of non-growing R6 [3]: only a minimal response
- viability of non-growing R6 [3]: unaffected
- loss of viability of A144 within one hour (clinical isolate A144 [4]): 0.5 logs
- lysis and death / tolerance of the mutants [5]: failed to lyse and die
- Lysis by [6]: tolerant
- lysis / tolerance of F79 [7]: tolerant
- Lysis by [8]: tolerant
- lysis of growing R6 (pneumococcal strain R6 [1]; 10×MIC, normal growth): lyses R6 within one hour

Compound: deoxycholate [DOC]
- Lysis by [2]: yes
- Lysis by [6]: no
- Lysis by [8]: yes

Compound: CN[C@H](CC(C)C)C(=O)N[C@H]1C(=O)N[C@@H](CC(N)=O)C(=O)N[C@H]2C(=O)N[C@H]3C(=O)N[C@H](C(=O)N[C@H](C(=O)O)c4cc(O)cc(O)c4-c4cc3ccc4O)[C@H](O)c3ccc(c(Cl)c3)Oc3cc2cc(c3O[C@@H]2O[C@H](CO)[C@@H](O)[C@H](O)[C@H]2O[C@H]2C[C@](C)(N)[C@H](O)[C@H](C)O2)Oc2ccc(cc2Cl)[C@H]1O [Vancomycin, vancomycin]
- Lysis by [2]: sensitive
- loss of viability of A144 within one hour (clinical isolate A144 [4]): 0.5 logs
- lysis and death / tolerance of the mutants [5]: exhibited tolerance
- Lysis by [6]: tolerant
- lysis / tolerance of F79 [7]: tolerant
- Lysis by [8]: tolerant

Compound: LADKRPARDYN (listed as Streptococcus pneumoniae) [Peptide 5]
- ability to inhibit R6 growth (FIG. 5) (pneumococcal strain R6 [1]): Exponential growth equal to untreated bacteria

Compound: MRKEFHNVLSSGQLLADKRPARDYNRK (listed as Streptococcus pneumoniae) [Peptide 6]
- ability to inhibit R6 growth (FIG. 5) (pneumococcal strain R6 [1]): the same effect

Compound: MRKEFHNVLSSGQLLADKRPARDYN (listed as Streptococcus pneumoniae) [Peptide 1]
- lysis / tolerance of strain Van S (HK mutant strain Van S): not responsive
- viable bacterial number lower than the control (pneumococcal strain R6 [9]; four hours): 10^3 fold
- killing of R6 (FIG. 2B) (pneumococcal strain R6 [9]; listed as SEQ ID NO:2): kills the bacteria without substantial cell lysis occurring; also recorded: rapidly killed
- viable bacterial number four hours after addition of the peptide (pneumococcal strain R6 [9]; start 3×10^6, control grew to 1.2×10^7 cfu/ml): 3×10^4 CFU/ml
- growth inhibition of the mutant in ORF W1 (mutant in ORF WI): not able to inhibit growth
- growth of strain A144 (clinical isolate A144 [10]): significantly inhibits the growth
- lysis response of non-growing R6 [3]: same response
- bactericidal activity in strain Lyt 4-4 [11]: demonstrable
- loss of viability of A144 within one hour (clinical isolate A144 [4]): 0.5 logs
- chain morphology of Lyt 4-4 (Lyt 4-4; listed as SEQ ID NO.2): dissolution of the chains
- chain morphology of Lyt 4-4 (Lyt 4-4; listed as the peptide): reversion of the chains to diplococci
- ability to inhibit R6 growth (FIG. 5) (pneumococcal strain R6 [1]): significant delay in the onset of bacterial growth
- lysis (pneumococcal strain R6 [1]; 0.1 mM peptide, R6, followed for 11 hours): No lysis was detected
- growth of the bacteria (optical density) (pneumococcal strain R6 [1]; 0.1 mM peptide, R6 at optical density 0.01 (3×10^6 cfu/ml), followed for 11 hours): completely inhibited growth
- minimum effective concentration (MEC) (pneumococcal strain R6 [1]; R6, converted with molecular weight 2940): 0.15 to 0.3 µg/mL
- minimum effective concentration (MEC) (pneumococcal strain R6 [1]; R6, optical density of the culture over 4 hours): 50 to 100 nM
- dose response of antibacterial activity (pneumococcal strain R6 [1]; R6, various amounts of peptide, 4 hours): dose dependent antibacterial activity
- growth inhibition of the RR/HK mutants (RR/HK mutants): did not function to inhibit the growth
